Test results from patent US11510931B2, “Compositions and methods for treating ophthalmic conditions” (MEDICON PHARMACEUTICALS, INC., priority 2016, dated 2022).

Key:
Type in all cases: in vivo, rabbit
Settings in all cases: Con A DED rabbits, 6 days, eye drops 3×/day; PS nanoparticles, cyclosporine 0.05%, lifitegrast 5%; mean ± SEM
[1] = test system: concanavalin A-induced dry eye in rabbits; test: Concanavalin A (Con A)-induced dry eye disease (DED) model in rabbits: TBUT, Schirmer test, tear osmolarity, tear lactoferrin
Method: To assess the efficacy of PS on DED an improved concanavalin A model was used. In the concanavalin A model, dry eye is induced by injecting the lacrimal glands of a mammal with concanavalin A, a selective T cell mitogen that induces a lymphocytic infiltrate in these glands. The concanavalin A model is generally described in (Barabino S. Animal models of dry eye. Arch Soc Esp Oftalmol. 2005; 80(12):693-4). Concanavalin A was injected to the lacrimal glands under ultrasound guidance, thus eliminating injections to the vicinity of the gland (as opposed to the gland itself). The head and the tail of the major lacrimal gland of the rabbit were injected separately. The dose of concanavalin A was optimized for DED signs.
In the testing described below, four markers of DED are monitored: the tear break up time (TBUT), the Schirmer test, tear osmolarity, and tear lactoferrin levels. All assays were performed at the same clock time (±1 hr) to avoid assay variability on account of circadian variations.
In an efficacy experiment using the concanavalin A model, one group of rabbits was treated with compound 5, also known as phosphosulindac and abbreviated as PS, 1.5% eye drops and one group with vehicle. […] It is thus clear that PS applied topically suppresses DED.
Con A was injected under ultrasound guidance into all the lacrimal glands and the success of the injection was verified by a post-injection ultrasound image (see FIG. 1 and FIG. 2). […] This variation explains why the blind injections recommended in the original method are often unsuccessful. This was confirmed by mixing the Con A solution with methylene blue and tracking its course after injection. In about ⅓ of the cases, Con A ended up outside the gland.
Four parameters of efficacy were evaluated instead of the usual one or two. They include (a) the tear break up time (TBUT), determined using 0.2% fluorescein over the eye and recording the time taken to develop black dots, lines or obvious disruption of the fluorescein film; (b) tear osmolarity, measured using TearLab Osmolarity Test and following the manufacturer's instructions (TearLab Corp., San Diego, Calif.); (3) Schirmer tear test (STT), determined using Schirmer strips (EagleVision, Denville, N.J.) inserted between the cornea and the palpebral conjunctiva at the mid-point of the lower lid and measuring the length of moistened strip at 5 min; and (4) tear lactoferrin levels measured by ELISA kit (MyBiosource, San Diego, Calif.) following the instructions of the manufacturer. All four have been used in clinical practice and correlate with the clinical activity of the disease. The STT is the least reliable and, as result, it is clinically used less than half as frequently as TBUT.
The injections of Con A to the lacrimal glands were repeated weekly as needed. When longer than a 1-week periods of study are needed, repeat injections prolong dry eye for at least 3 weeks, making the originally acute model chronic.
PS Suppresses Con A—Induced Dry Eye in Rabbits. The effect of PS on dry eye was determined in New Zealand White (NZW) rabbits, 2-3 kg (Charles River Labs, Waltham, Mass.). These rabbits were housed singly in rooms with strict temperature (70±5° F.) and humidity (45±5%) control and acclimated for at least 2 weeks prior to induction of dry eye by injection of Con A as above. NZW rabbits with Con A-induced dry eye (three sets of injections) were treated with PS formulated as nanoparticles and administered topically as eye drops 3×/day for 21 days, starting on the day of Con A injection. […] Similar results were obtained on days 5 and 14 (data not shown).
Using this model, we compared the effect of PS to that of cyclosporine and lifitegrast. Rabbits were treated for 6 days with PS as above or cyclosporine 0.05% or lifitegrast 5% eye drops 3×/day. In addition to determining TUBT, osmolarity and STT, we measured the levels of IL-8 and IL-1β in the ILGs of the rabbits harvested at euthanasia. […]

IL-8 = IL-8 levels in the ILG of rabbits with DED (ELISA)
Method: (§1) Using this model, we compared the effect of PS to that of cyclosporine and lifitegrast. Rabbits were treated for 6 days with PS as above or cyclosporine 0.05% or lifitegrast 5% eye drops 3×/day. In addition to determining TUBT, osmolarity and STT, we measured the levels of IL-8 and IL-1β in the ILGs of the rabbits harvested at euthanasia. Both of these cytokines are significant mediators of inflammation in DED. As shown in the table below, PS had statistically significant effects on TBUT, tear osmolarity, IL-8 and IL-1β levels. […] Of note, lifitegrast suppressed STT below the levels of the vehicle group and this suppression was statistically significant, but in the opposite direction for a useful therapeutic effect.
(§2) Moreover, for all three cytokines PS suppressed their unstimulated levels as well (62%, 84% and 4.7% reduction, respectively). In addition, PS suppressed the levels of IL-8 by 64% and IL-1β (not expressed by the cultured cells) by 61% in the ILG of rabbits treated with PS for 1 week compared to controls treated with vehicle (FIG. 8B). TGF-β was not detectable by the method in ILG homogenates. All these changes were statistically significant (p<0.001-0.04, except for the unstimulated TGF-β).

IL-1β = IL-1β levels in the ILG of rabbits with DED (ELISA)
Method: as §1, §2

In the case of `CS(=O)(=O)c1cccc(C[C@H](NC(=O)c2c(Cl)cc3c(c2Cl)CCN(C(=O)c2ccc4ccoc4c2)C3)C(=O)O)c1` [Lifitegrast, lifitegrast, reference compound], the Osmolarity [1] is reported as 290 ± 4.2 mOsm/L, the STT [1] is reported as 6.9 ± 0.7 mm and the TBUT [1] is reported as 9.1 ± 3.0 s. The “IL-8 in the ILG” value (IL-8) was 9.0 ± 2.4 pg/mg protein and the “IL-1β in the ILG” value (IL-1β) was 11.5 ± 1.9 pg/mg protein.
